Experimental data reported in US20090196862A1, “High dosage Vitamin D” (priority 2008, published 2009).

Key:
[1] = literature report; cited from earlier work
atherosclerotic plaque = assay: Coronary / atherosclerotic plaque by heart CT scan score in patients; assay type: in vivo, human; conditions: for effect on plaques (heart CT scan score): patients with coronary plaques
Procedure: In clinical practice with regard to plaque formation, the present inventor observed that blood serum levels of D3 of about 50 ng/mL provide sufficient effect. Below 50 ng/mL, there is an incremental effect, with a very small effect as low as 20 ng/mL, but a significant effect emerging at 40-45 ng/mL. By 50 ng/mL, there is a significant and often sufficient effect. About 50 ng/mL of 25-hydroxy-vitamin D [25(OH)D] in blood serum provides a reasonably strong effect against plaque buildup.

[2] = Clinical observation of lipids, inflammatory levels and blood pressure on oral D3; assay type: in vivo, human; conditions: oral administration
Excerpt: The present inventor observed lipid effects (reduced triglycerides, a raise in the levels of HDL [“good cholesterol”] and a reduction in LDL particles [“bad cholesterol”]) from oral supplementation of an oil-based preparation of D3.

Structure (SMILES) | conversion of D2 to D3 in humans [1] [%] | blood serum level of D3 at which a significant effect emerges (plaque formation) (atherosclerotic plaque; clinical practice) [ng/mL] | blood serum level of D3 providing sufficient effect on plaque formation (atherosclerotic plaque; clinical practice) | blood serum level of D3 with a very small effect (plaque formation) (atherosclerotic plaque; clinical practice) [ng/mL] | effect on plaques (heart CT scan score) (atherosclerotic plaque; listed as oral D3) | effect on plaques (heart CT scan score) (atherosclerotic plaque; listed as vitamin D) | blood pressure [2] | inflammatory levels [2]
C=C1CC[C@H](O)C/C1=C/C=C1\CCC[C@]2(C)[C@@H]([C@H](C)/C=C/[C@H](C)C(C)C)CC[C@@H]12 [D2, ergocalciferol] | ≤ 70 |  |  |  |  |  |  | 
C=C1CC[C@H](O)C/C1=C/C=C1\CCC[C@]2(C)[C@@H]([C@H](C)CCCC(C)C)CC[C@@H]12 [D3, cholecalciferol] |  | 40 to 45 | about 50 ng/mL | 20 | positive effect | decreased evidence of plaques | reductions | reductions
